The test system of data set [1] is Mycobacterium tuberculosis H37Rv strain (ATCC 27294). Nature of the data set: Antimycobacterial pre-screening at 6.25 μg/mL (BACTEC 460 radiometric system). The format is cell-based. Conditions: M. tuberculosis H37Rv; for inhibition at 6.25 µg/mL: 6.25 μg/mL; for MIC90: pre-screening, read-out: Estimation of MIC90.
Data set [2] in a line: in vitro. To be noted: African green monkey.
Data set [3] relates to male mice. Nature of the data set: Acute toxicity in vivo, median lethal dose. Conditions: intraperitoneal, approximate LD50 (Litchfield and Wilcoxon). The protocol:
The synthesized compounds were evaluated for their approximate LD50 in male mice. The mice were kept under a constant temperature and humidity in sterile cages with water and food. The stock solutions of the compounds used in this study were prepared immediately before usage and injected intraperitoneally (ip). The LD50 values (Tab. 3) were calculated using the method described by Litchfield and Wilcoxon.
The median lethal dose (LD50), the dose of the selected compounds that causes 50% mortality in mice, was determined from dose–response curves with at least four doses by the method of Litchfield and Wilcoxon.

Data set [4] relates to M. tuberculosis H37Rv. Nature of the data set: Microplate Alamar Blue Assay (MABA), MIC determination. It counts as cell-based, Mycobacterium tuberculosis. To be noted: two-fold dilution from 100.00 to 0.19 μg/mL. In general terms: Resazurin is reduced to fluorescent resorufin, in cell work by metabolically active cells.
A short description of data set [5]: Cytotoxicity in VERO cells (MTT). To be noted: African green monkey.
The mark [6] stands for this setting: Mycobacterium tuberculosis, H37RV, read-out: MIC90.

Values after ≈ are worked out from the molar mass of the structure shown. Read-outs that look alike come from different tables or passages of the source.

In general, inhibition refers to the drop in the measured response relative to a control, in per cent. A word on the MIC90: it is an inhibitory concentration at the 90% level, which refers to growth in some studies and to a panel of isolates in others. As a reminder, the IC50 is the concentration needed to halve the response being measured. With `O=C1C2=C(C(=O)c3ccccc31)C(c1ccc(Cl)cc1)c1sc(=O)[nH]c1S2` (stereo not drawn) [Compound 4g, 11-(4-Chlorophenyl)-3,11-dihydro-2H-benzo[6,7]thiochromeno[2,3-d][1,3]thiazole-2,5,10-trione], in data set [1], the inhibition at 6.25 µg/mL was ≥ 90% and the MIC90 is < 6.25 µg/mL. In data set [2], this molecule returned an IC50 at 72 h of 1.58 µg/mL (≈ 3.84 µM). The LD50ip in data set [3] was >1000 mg/kg.

Take `O=C1C2=C(C(=O)c3ccccc31)C(c1ccc(F)cc1)c1sc(=O)[nH]c1S2` (stereo not drawn) [Compound 4h, 11-(4-Fluorophenyl)-3,11-dihydro-2H-benzo[6,7]thiochromeno[2,3-d][1,3]thiazole-2,5,10-trione]: in data set [1], the inhibition at 6.25 µg/mL is ≥ 90% and the MIC90 is < 6.25 µg/mL. Further, in data set [2], half-maximal inhibition (IC50 at 72 h) required 1.47 µg/mL (≈ 3.72 µM). In data set [3], this molecule displayed an LD50ip of 750 mg/kg.

For `COC(=O)c1ccc(C2C3=C(Sc4[nH]c(=O)sc42)C(=O)c2ccccc2C3=O)cc1` (stereo not drawn) [Compound 4c, Methyl 4-(2,5,10-trioxo-3,5,10,11-tetrahydro-2H-benzo[6,7]thiochromeno[2,3-d][1,3]thiazol-11-yl)benzoate], in data set [1], the inhibition at 6.25 µg/mL is ≥ 90% and the MIC90 is < 6.25 µg/mL. In data set [3], this molecule showed an LD50ip of 180 mg/kg.

For the molecule `COc1cc(C2C3=C(Sc4[nH]c(=O)sc42)C(=O)c2ccccc2C3=O)ccc1OC(F)F` (stereo not drawn) [Compound 4d, 11-[4-(Difluoromethoxy)-3-methoxyphenyl]-3,11-dihydro-2H-benzo[6,7]thio-chromeno[2,3-d][1,3]thiazole-2,5,10-trione], in data set [1], the inhibition at 6.25 µg/mL is 65% and the MIC90 was > 6.25 µg/mL. In data set [3], this molecule showed an LD50ip of 710 mg/kg.

`O=C1C2=C(C(=O)c3ccccc31)C(c1ccccc1O)c1sc(=O)[nH]c1S2` (stereo not drawn) [Compound 4a, 11-(2-Hydroxyphenyl)-3, 11-dihydro-2H-benzo[6,7]thiochromeno[2,3-d][1,3]thiazole-2,5,10-trione]: the inhibition at 6.25 µg/mL in data set [1] is ≥ 90%. Besides, the values for the MIC90 in data set [1], in data set [4] (setting [6]) and in data set [4] were < 6.25 µg/mL, 0.6 to 2.7 µg/mL (≈ 1.52 to 6.86 µM) and 0.68 µg/mL (≈ 1.73 µM), respectively. In data set [2], this molecule gave a 50% inhibitory concentration (IC50) at 72 h of 0.44 µg/mL (≈ 1.12 µM). Also, the LD50ip in data set [3] is 800 mg/kg.

On to `CC(C)(C)c1ccc(C2C3=C(Sc4[nH]c(=O)sc42)C(=O)c2ccccc2C3=O)cc1` (stereo not drawn) [Compound 4b, 11-(4-tert-Butylphenyl)-3,11-dihydro-2H-benzo[6,7]thiochromeno[2,3-d][1,3]thiazole-2,5,10-trione], for which, in data set [1], the inhibition at 6.25 µg/mL came to 61% and the MIC90 was > 6.25 µg/mL. Also, in data set [3], the LD50ip was 650 mg/kg.

As for `CO[C@H]1/C=C/O[C@@]2(C)Oc3c(C)c(O)c4c(O)c(c(/C=N/N5CCN(C)CC5)c(O)c4c3C2=O)NC(=O)/C(C)=C\C=C\[C@H](C)[C@H](O)[C@@H](C)[C@@H](O)[C@@H](C)[C@H](OC(C)=O)[C@@H]1C` [Rifampin, reference compound], in data set [5], the IC50 at 72 h was > 6 µg/mL. Also, the MIC90 in data set [4] (setting [6]) was 0.075 µg/mL (≈ 0.0911 µM).

Regarding `NNC(=O)c1ccncc1` [Isoniazid, isoniazid, reference compound], the IC50 at 72 h in data set [5] was > 6 µg/mL. Further, the MIC90 in data set [4] (setting [6]) came to 0.044 µg/mL (≈ 0.321 µM).

These data come from publication PMC3700073, “Synthesis and Biological Activity of New Thiopyrano[2,3-d]thiazoles Containing a Naphthoquinone Moiety” (Scientia Pharmaceutica, 2013).
